These results are taken from patent US10065990B2, “Cyclic peptide compound, and preparation method, pharmaceutical composition and use thereof” (HANGZHOU GUANYU BIO-MEDICAL CO., LTD, priority 2013, dated 2018).

In test [1] the target is T1, HDAC7 (Homo sapiens, UniProt Q8WUI4).
T1 sequence (Q8WUI4 1-952): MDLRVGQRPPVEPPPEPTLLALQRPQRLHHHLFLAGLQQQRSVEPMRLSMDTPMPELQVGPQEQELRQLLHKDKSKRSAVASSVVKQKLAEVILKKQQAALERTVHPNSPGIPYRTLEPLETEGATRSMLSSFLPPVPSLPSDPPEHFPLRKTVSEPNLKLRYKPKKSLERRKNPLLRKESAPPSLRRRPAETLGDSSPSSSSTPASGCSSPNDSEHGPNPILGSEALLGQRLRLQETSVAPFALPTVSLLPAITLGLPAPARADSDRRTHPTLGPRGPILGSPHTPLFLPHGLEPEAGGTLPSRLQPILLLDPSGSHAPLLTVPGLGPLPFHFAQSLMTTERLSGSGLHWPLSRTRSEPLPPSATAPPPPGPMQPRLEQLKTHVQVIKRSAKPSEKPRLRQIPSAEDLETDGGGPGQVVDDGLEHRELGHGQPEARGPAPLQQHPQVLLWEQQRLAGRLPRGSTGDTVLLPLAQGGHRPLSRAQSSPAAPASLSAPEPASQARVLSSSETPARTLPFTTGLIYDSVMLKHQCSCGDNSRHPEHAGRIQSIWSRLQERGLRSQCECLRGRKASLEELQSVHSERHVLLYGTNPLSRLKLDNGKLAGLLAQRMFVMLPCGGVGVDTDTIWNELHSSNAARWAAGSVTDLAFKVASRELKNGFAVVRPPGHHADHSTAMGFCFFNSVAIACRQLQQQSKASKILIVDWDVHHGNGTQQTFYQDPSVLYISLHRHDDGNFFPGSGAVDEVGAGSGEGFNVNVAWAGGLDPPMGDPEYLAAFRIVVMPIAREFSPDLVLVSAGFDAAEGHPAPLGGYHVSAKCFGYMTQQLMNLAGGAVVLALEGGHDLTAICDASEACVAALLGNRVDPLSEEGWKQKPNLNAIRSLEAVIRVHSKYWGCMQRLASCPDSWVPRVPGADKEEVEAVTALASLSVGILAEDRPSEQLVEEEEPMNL
In words: HDAC biochemical activity measurement (fluorescent substrate deacetylation).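 Also: fluorogenic deacetylation assay using acetyl-lysine substrate at 20 µM, enzyme and compound incubated 30 min at 37 °C, then developer added, fluorescence read at 360/460 nm.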 To be noted: HDAC7; 37° C. 30 minutes.

The test system of test [2] is U937 (human leukemia cells). In words: MTT cancer cell growth inhibition. To be noted: MTT, 72 hours incubation, read-out: GI50 U93. Type of test: cell-based. In outline:
(§1)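 Three-day compound exposure (final 10^−5–10^−10 M, three replicate wells) of cells seeded at 1500 per well precedes a 4 h MTT incubation at 37° C. Viability is taken from 570 nm absorbance after DMSO solubilisation, and GI50 calculated from it.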

Test [3] concerns BGC-823 (human gastric cancer cells). In words: MTT cancer cell growth inhibition. Format: cell-based. To be noted: MTT, 72 hours incubation, read-out: GI50 BG. In outline:
as §1

For test [4], the system named is SGC-7901 (human gastric cancer cells). In words: MTT cancer cell growth inhibition. Type of test: cell-based. To be noted: MTT, 72 hours incubation, SGC-7901 cells, read-out: GI50 SGC-7901. In outline: as §1
Test [5] concerns DU145 (human prostate cancer cells). In words: MTT cancer cell growth inhibition. Type of test: cell-based. To be noted: MTT, 72 hours incubation, read-out: GI50 Du1. In outline: as §1
For test [6], the system named is H1975 (non-small cell lung adenocarcinoma). In words: MTT cancer cell growth inhibition. Format: cell-based. To be noted: MTT, 72 hours incubation, H1975 cells, read-out: GI50 H1975. In a few lines: as §1
Test [7] concerns KBM5-T315I (human chronic myelogenous leukemia). In words: MTT cancer cell growth inhibition. To be noted: MTT, 72 hours incubation, KBM5-T315I cells, read-out: GI50 KBM5-T315I. Type of test: cell-based. In a few lines: as §1
For test [8], the system named is N-87 (human gastric cancer cells). In words: MTT cancer cell growth inhibition. Format: cell-based. To be noted: MTT, 72 hours incubation, N-87 cells, read-out: GI50 N-87. In a few lines: as §1
The subject of test [9] is HCC827 (human non-small cell lung cancer cells). In words: MTT cancer cell growth inhibition. Type of test: cell-based. To be noted: MTT, 72 hours incubation, HCC827 cells, read-out: GI50 HCC827. In outline:
as §1

Test [10] relates to Hela (human cervical cancer cells). In words: MTT cancer cell growth inhibition. To be noted: MTT, 72 hours incubation, read-out: GI50 Hela. Type of test: cell-based. In a few lines: as §1
The test system of test [11] is MOLT-4 (human acute lymphoblastic leukemia cells). In words: MTT cancer cell growth inhibition. Type of test: cell-based. To be noted: MTT, 72 hours incubation, read-out: GI50 Mol. In a few lines:
as §1

Test [12] has as its system A549 (human lung cancer cells). In words: MTT cancer cell growth inhibition. Type of test: cell-based. To be noted: MTT, 72 hours incubation, read-out: GI50 A54. In outline:
as §1

The test system of test [13] is lncap (prostate cancer cells). In words: MTT cancer cell growth inhibition. To be noted: MTT, 72 hours incubation, read-out: GI50 lnca. Format: cell-based. In a few lines: as §1
The subject of test [14] is Bel-7402 (human hepatoma cells). In words: MTT cancer cell growth inhibition. Format: cell-based. To be noted: MTT, 72 hours incubation, Bel-7402 cells, read-out: GI50 Bel-7402. In outline:
as §1

In test [15] the test system is Huh-7 (human hepatoma cells). In words: MTT cancer cell growth inhibition. Format: cell-based. To be noted: MTT, 72 hours incubation, Huh-7 cells, read-out: GI50 Huh-7. In a few lines: as §1
Test [16] concerns K562 (human leukemia cells). In words: MTT cancer cell growth inhibition. Format: cell-based. To be noted: MTT, 72 hours incubation, K562 cells, read-out: GI50 K562. In a few lines: as §1
The test system of test [17] is HT1080 (human fibrosarcoma cells). In words: MTT cancer cell growth inhibition. Format: cell-based. To be noted: MTT, 72 hours incubation, read-out: GI50 HT1. In a few lines:
as §1

Test [18] relates to PANC-1 (Pac-1, human pancreatic cancer cells). In words: MTT cancer cell growth inhibition. Type of test: cell-based. To be noted: MTT, 72 hours incubation, read-out: GI50 PAN. In outline:
as §1

Test [19] deals with KBM-5 (human chronic myelogenous leukemia). In words: MTT cancer cell growth inhibition. Format: cell-based. To be noted: MTT, 72 hours incubation, KBM-5 cells, read-out: GI50 KBM-5. In a few lines: as §1
Test [20] concerns MDA-MB-231 (breast cancer cells). In words: MTT cancer cell growth inhibition. Format: cell-based. In outline: as §1
The subject of test [21] is MCF-7 (human breast cancer cells). In words: MTT cancer cell growth inhibition. Type of test: cell-based. To be noted: 72 hours incubation, read-out: GI50 MCF. In outline:
as §1

[22] abbreviates: Homo sapiens, MDA-MB-231, 72 h, read-out: GI50 MDA-MB-231, MTT, 72 hours incubation, MDA-MB-231 cells.

In general, GI50 refers to the concentration at which growth is held to half of that of the control.

Molecules are shown by their SMILES. Read-outs that look alike come from different tables or passages of the source.

In the case of `C=C1NC(=O)c2cc(F)cc(n2)CNC(=O)C[C@@H](/C=C/CCS)OC(=O)[C@H](C(C)C)NC1=O` [Compound 133], in test [1], the “IC50 HDAC7” value is reported as “no activity”. In addition, the GI50 in test [2] is 50 nM; in [3], 50 nM; in test [4], 35 nM; in test [5] it was 70 nM; in test [6] it was 31 nM; in [7] it was 16 nM. Further, the concentration for 50% growth inhibition (GI50) in test [8] was 66 nM; in test [9], 36 nM; in test [10], 20 nM; in [11] it was 80 nM; in test [12], 50 nM; in test [13], 80 nM. Further, the GI50 in [14] came to 32 nM; in test [15] it was 33 nM; in test [16], 16 nM; in [17] it was 80 nM; in test [18] it was 50 nM; in [19] it was 36 nM. The GI50 turned out to be 35 nM in [20] (read-out: GI50 MDA-MB-231, MTT, 72 hours incubation, MDA-MB-231 cells) and 70 nM in test [21].
As for `C/C=C1\NC(=O)c2cc(F)cc(n2)CNC(=O)C[C@@H](/C=C/CCSC(C)=O)OC(=O)[C@@H](C)NC1=O` [Compound 101], the “IC50 HDAC7” value in test [1] is “no activity”. The GI50 in test [2] (Homo sapiens, U-937, 72 h) is 50 nM; in test [3] (Homo sapiens, BGC-823, 72 h), 30 nM; in test [4] (Homo sapiens, SGC-7901, 72 h), 48 nM; in test [5] (Homo sapiens, DU-145, 72 h), 30 nM; in [6] (Homo sapiens, NCI-H1975, 72 h), 69 nM; in test [7] (Homo sapiens, 72 h) it was 36 nM. Moreover, the GI50 in test [8] (Homo sapiens, 72 h) was 26 nM; in test [9] (Homo sapiens, HCC827, 72 h) it was 39 nM; in test [10] (Homo sapiens, HeLa, 72 h) it was 40 nM; in [11] (Homo sapiens, MOLT-4, 72 h), 20 nM; in test [12] (Homo sapiens, A549, 72 h), 70 nM; in test [13] (Homo sapiens, LNCaP, 72 h) it was 20 nM. The GI50 in test [14] (Homo sapiens, Bel-7402, 72 h) was found to be 45 nM; in test [15] (Homo sapiens, Huh-7, 72 h) it was 36 nM; in [16] (Homo sapiens, K562, 72 h), 21 nM; in test [17] (Homo sapiens, HT-1080, 72 h) it was 40 nM; in test [18] (Homo sapiens, PANC-1, 72 h), 40 nM; in [19] (Homo sapiens, KBM5, 72 h), 41 nM. The GI50 in test [20] (setting [22]) amounted to 52 nM; in test [21] (Homo sapiens, MCF7, 72 h), 20 nM.
`C/C=C1\NC(=O)c2cc(F)cc(n2)CNC(=O)C[C@@H](/C=C/CCSC(=O)CCCCC)OC(=O)[C@H](C(C)C)NC1=O` [Example 37]: the “IC50 HDAC7” value in test [1] is listed as “no activity”. The GI50 in [2] (Homo sapiens, U-937, 72 h) stood at 20 nM; in test [3] (Homo sapiens, BGC-823, 72 h) it was 40 nM; in test [4] (Homo sapiens, SGC-7901, 72 h) it was 51 nM; in test [5] (Homo sapiens, DU-145, 72 h) it was 30 nM; in test [6] (Homo sapiens, NCI-H1975, 72 h) it was 27 nM; in test [7] (Homo sapiens, 72 h), 62 nM. In addition, the GI50 was 41 nM in test [8] (Homo sapiens, 72 h); 34 nM in [9] (Homo sapiens, HCC827, 72 h); 50 nM in test [10] (Homo sapiens, HeLa, 72 h); 30 nM in test [11] (Homo sapiens, MOLT-4, 72 h); 50 nM in [12] (Homo sapiens, A549, 72 h); 30 nM in test [13] (Homo sapiens, LNCaP, 72 h). For the same compound, the GI50 in test [14] (Homo sapiens, Bel-7402, 72 h) amounted to 34 nM; in test [15] (Homo sapiens, Huh-7, 72 h), 38 nM; in test [16] (Homo sapiens, K562, 72 h) it was 37 nM; in test [17] (Homo sapiens, HT-1080, 72 h), 30 nM; in test [18] (Homo sapiens, PANC-1, 72 h) it was 30 nM; in test [19] (Homo sapiens, KBM5, 72 h), 53 nM. The GI50 in test [20] (setting [22]) stood at 38 nM; in [21] (Homo sapiens, MCF7, 72 h) it was 60 nM.
On to `CC(C)=C1NC(=O)c2nc(ccc2F)CNC(=O)C[C@@H](/C=C/CCS)OC(=O)[C@H](C(C)C)NC1=O` [Compound 136], for which, in test [1], the “IC50 HDAC7” value is “no activity”. The GI50 came out at 30 nM in test [2] (Homo sapiens, U-937, 72 h); 70 nM in [3] (Homo sapiens, BGC-823, 72 h); 51 nM in test [4] (Homo sapiens, SGC-7901, 72 h); 10 nM in [5] (Homo sapiens, DU-145, 72 h); 35 nM in [6] (Homo sapiens, NCI-H1975, 72 h); 35 nM in test [7] (Homo sapiens, 72 h). The GI50 came out at 31 nM in test [8] (Homo sapiens, 72 h); 41 nM in [9] (Homo sapiens, HCC827, 72 h); 80 nM in test [10] (Homo sapiens, HeLa, 72 h); 20 nM in [11] (Homo sapiens, MOLT-4, 72 h); 40 nM in [12] (Homo sapiens, A549, 72 h); 30 nM in test [13] (Homo sapiens, LNCaP, 72 h). Further, the GI50 in test [14] (Homo sapiens, Bel-7402, 72 h) was determined as 22 nM; in [15] (Homo sapiens, Huh-7, 72 h), 36 nM; in [16] (Homo sapiens, K562, 72 h), 46 nM; in test [17] (Homo sapiens, HT-1080, 72 h) it was 40 nM; in test [18] (Homo sapiens, PANC-1, 72 h), 80 nM; in [19] (Homo sapiens, KBM5, 72 h) it was 9 nM. Moreover, the GI50 is 58 nM in test [20] (setting [22]) and 50 nM in test [21] (Homo sapiens, MCF7, 72 h).
